Measured values: US20150057180A1, “Methods and Kits for Analyzing Biomarkers in a Signal Transduction Pathway” (BioScale, Inc., priority 2012, published 2015)
“Also recorded” adds a separate entry of the source.

How the values were obtained:
pMEK1 [1] = experiment: AMMP pMEK1 assay, MCF-7 cells
Excerpt: (§1) AMMP Assay Design: These studies were designed using AMMP® (Acoustic Membrane Microparticle Assay) as run on the ViBE® workstation (BioScale). Assays were constructed so that strepavidin coated magnetic microparticles were loaded with analyte-specific biotinylated antibody and the solution phase sandwich partner antibody was conjugated with fluorescein. The complex of bead-analyte and fluorescien-labeled antibody was detected by the anti-fluorescein antibody-coated acoustic membrane of the VIBE.
(§2) Assay Set-Up: Cell lysates were thawed on ice then centrifuged at 14,000 RPM. Forty microliters of diluted cell lysates were pipetted in to the appropriate well of each plate with forty microliters of sample diluent. Also to each well, a total of forty microliters of a mixture of 1.5×10^5 magnetic beads and 200 ng/ml of fluorescein labeled detector antibody were added. Separate wells were loaded with beads and lysates alone to serve as negative controls. The plates were loaded on the VIBE workstation (BioScale Inc., Lexington, Mass.) and incubated for 4 hours prior to analysis.

pHER3 [2] = experiment: AMMP pHER3 assay, A431 cells; conditions: for EGF stimulated phosphorylation of HER3: inhibitor (Afatinib 13 nM, Gefitinib 37 nM or Neratinib 92 nM) 2 hours prior to EGF 100 ng/ml 10 minutes
Excerpt: as §1, §2

pp38 [3] = experiment: AMMP pp38 assay, A431 cells
Procedure: (§3) TPER was supplemented with phosphatase and protease inhibitors (ThermoFisher/Pierce) as described by the manufacturer. The cells were lysed by pipetting the TPER on the adhesion cell layer, or onto the cell pellet in the case of Jurkat cells. Cell lysates were collected into conical tubes, placed on ice, and vortexed every 5 minutes for a total of 20 minutes before aliquoting and freezing on dry ice. A standard BCA protein assay was used to determine total protein concentration of the lysates.
as §1
(§4) Assay Set-Up: Cell lysates were thawed on ice then centrifuged at 14,000 RPM. Forty microliters of diluted cell lysates were pipetted in to the appropriate well of each plate with forty microliters of sample diluent. Also to each well, a total of forty microliters of a mixture of 1.5×10^5 magnetic beads and 200 ng/ml of fluorescein labeled detector antibody were added. […]

pp38 [4] = experiment: AMMP pp38 assay, MCF-7 cells
Procedure: as §3, §1, §4

pMEK1 [5] = experiment: AMMP pMEK1 assay, A431 cells
Excerpt: as §1, §2

pAKT1 [6] = experiment: AMMP pAKT1 assay, MCF-7 cells
Procedure: as §3, §1, §4

pERK1/2 [7] = experiment: AMMP pERK1/2 assay, A431 cells
Excerpt: as §1, §2

pJNK [8] = experiment: AMMP pJNK assay, A431 cells
Procedure: as §3, §1, §2

pERK1/2 [9] = experiment: AMMP pERK1/2 assay, MCF-7 cells; conditions: for EGF stimulated phosphorylation of ERK1/2: inhibitor (Afatinib 13 nM, Gefitinib 37 nM or Neratinib 92 nM) 2 hours prior to EGF 100 ng/ml 10 minutes
Excerpt: as §1, §2

pHER3 [10] = experiment: AMMP pHER3 assay, MCF-7 cells
Procedure: as §3, §1, §2

pAKT1 [11] = experiment: AMMP pAKT1 assay, A431 cells; conditions: inhibitor (Neratinib 92 nM) 2 hours prior to EGF 100 ng/ml 10 minutes
Procedure: as §3, §1, §4

phosphorylated p38 = experiment: AMMP phospho-p38 assay, A431 cell lysates (Example 5); format: cell-based, human; conditions: EGF-stimulated A431 cells compared to unstimulated A431 cells (FIG. 38)
Procedure: For the sample preparation from A431 cells, the following methods were used. Human epidermoid carcinoma cells A431 (American Type Culture Collection (ATCC), Manassas, Va.; ATCC Catalog No. CRL-1555) were grown to approximately 80% confluence in T75 flasks according to standard cell culture techniques. […] Negative control cells were incubated with serum free medium without stimulant, also for 10 minutes.
Additional scraping was required to release the cells from the plastic. The resulting cell suspension was incubated for approximately 15 minutes on ice with vortexing every five minutes for effective cell lysis. Phosphatase and protease inhibitors (HALT, Thermo Fisher (Pierce)) were included in the detergent cell treatment preparation. Cell lysates were aliquoted and snap frozen on dry ice, and then transferred to a −80° C. freezer until analysis. […]
Cell lysate samples were prepared for the assays by thawing them on ice then clarifying by centrifugation in a microcentrifuge at 14,000 RPM for 10 minutes. […] Negative controls containing the bead only with the samples (no fluoresceinated antibody) were run and the ViBE response was subtracted from the sample signal readings to determine the specific assay signal.

pJNK [12] = experiment: AMMP pJNK assay, MCF-7 cells; format: cell-based, human; conditions: EGF 100 ng/ml for 10 minutes vs no treatment
Procedure: as §3, §1, §4

[13] = inhibitor (Neratinib 92 nM) 2 hours prior to EGF 100 ng/ml 10 minutes
[14] = inhibitor (Afatinib 13 nM, Gefitinib 37 nM or Neratinib 92 nM) 2 hours prior to EGF 100 ng/ml 10 minutes, listed as neratinib
[15] = EGF 100 ng/ml for 10 minutes vs no treatment

CCOc1cc2ncc(C#N)c(Nc3ccc(OCc4ccccn4)c(Cl)c3)c2cc1NC(=O)/C=C/CN(C)C [Neratinib]
EGF stimulated phosphorylation of MEK1 (pMEK1 [1]; [13]): inhibitory effects; also recorded: partially inhibited
EGF stimulated phosphorylation of HER3 (pHER3 [2]): largely inhibit
EGF stimulated phosphorylation of HER3 (pHER3 [2]; listed as neratinib): highly effective
EGF stimulated phosphorylation of p38 (pp38 [3]; inhibitor (Afatinib 13 nM, Gefitinib 37 nM or Neratinib 92 nM) 2 hours prior to EGF 100 ng/ml 10 minutes): largely unaffected
EGF stimulated phosphorylation of p38 (pp38 [4]; [13]): slight loss in phosphorylation
EGF stimulated phosphorylation of MEK1 (pMEK1 [5]; [14]): no such effect; also recorded: much less than expected
EGF stimulated phosphorylation of AKT1 (pAKT1 [6]; [13]): slight loss in phosphorylation
EGF stimulated phosphorylation of ERK1/2 (pERK1/2 [7]; [14]): no such effect; also recorded: much less than expected
EGF stimulated phosphorylation of JNK (pJNK [8]; [13]): largely unaffected
EGF stimulated phosphorylation of ERK1/2 (pERK1/2 [9]): inhibitory effects
EGF stimulated phosphorylation of HER3 (pHER3 [10]; [13]): only partially inhibited
EGF stimulated phosphorylation of AKT1 (pAKT1 [11]): largely unaffected

epidermal growth factor [EGF]
phosphorylation of MEK1 on EGF stimulation (pMEK1 [1]; [15]): modest phosphorylation of MEK1; also recorded: resulted in phosphorylation
phosphorylation of HER3 on EGF stimulation (pHER3 [2]; [15]): increased with EGF stimulation; also recorded: high even in non-treated A431 cells
phosphorylation of p38 on EGF stimulation (pp38 [3]; [15]): led to phosphorylation
phosphorylation of p38 on EGF stimulation (pp38 [4]; [15]): moderate phosphorylation of p38
phosphorylation of MEK1 on EGF stimulation (pMEK1 [5]; [15]): Strong phosphorylation of MEK1; also recorded: led to phosphorylation
phosphorylation of AKT1 on EGF stimulation (pAKT1 [6]; [15]): small amount of AKT1 phosphorylation
phosphorylation of ERK1/2 on EGF stimulation (pERK1/2 [7]; [15]): predominated the signaling pathway; also recorded: easily detected; also recorded: led to phosphorylation
amount of phospho-p38 (phosphorylated p38): dramatic increase
phosphorylation of JNK on EGF stimulation (pJNK [8]; [15]): no change in JNK; also recorded: No phosphorylation of JNK
phosphorylation of ERK1/2 on EGF stimulation (pERK1/2 [9]; [15]): detected phosphorylation of ERK1/2; also recorded: detected to a lesser degree; also recorded: resulted in phosphorylation
phosphorylation of HER3 on EGF stimulation (pHER3 [10]; [15]): little phosphorylation was observed; also recorded: resulted in phosphorylation
phosphorylation of JNK on EGF stimulation (pJNK [12]): no change in JNK; also recorded: No phosphorylation of JNK

COc1cc2ncnc(Nc3ccc(F)c(Cl)c3)c2cc1OCCCN1CCOCC1 [gefitinib, Gefitinib]
EGF stimulated phosphorylation of ERK1/2 (pERK1/2 [9]): inhibited
